Here are results for five molecules from patent publication US6784191B2, “Benzamidine derivatives” (Ajinomoto Co., Inc., priority 1999, dated 2004).

Some results are limits rather than exact numbers.

Experiment [1] concerns the target T1, activated human blood coagulation factor X (Homo sapiens, UniProt P00742).
T1 construct: purchased Enzyme Research Co
The experiment in a line: Determination of activity of inhibiting the activated blood-coagulation factor X (chromogenic substrate, initial rate). It is filed as biochemical. Conditions: negative logarithm of concentration inhibiting 50% of initial rate, tris hydrochloride buffer pH 8.4, room temperature; for IC50: read-out: Activity of inhibiting activated blood coagulation factor X (pIC50) (converted). As to the method:
Determination of Activity of Inhibiting the Activated Blood-coagulation Factor X
130 μl of 100 mM tris hydrochloride buffer adjusted to pH 8.4 was added to 10 μl of an aqueous solution of a compound to be tested. Then 10 μl of a 0.5 unit/ml solution of activated human blood coagulation factor X (a product of Enzyme Research Co.) in tris hydrochloride buffer of pH 8.4 was added to the resultant mixture. After the incubation at room temperature for 10 minutes, 50 μl of a solution of N-benzoyl-L-isoleucine-L-glutamine-glycine-L-arginine-P-nitroanilide hydrochloride (a product of Peptide Institute Inc.) adjusted to 0.8 mM with tris hydrochloride (pH 8.4) was added thereto. The absorbance was determined and then the initial reaction rate was determined. A control was prepared in the same manner as that described above except that the solution of the compound to be tested was replaced with 10 μl of tris hydrochloride buffer adjusted to pH 8.4. The absorbance was determined with MICROPLATE READER Model 3550-UV (a product of BIO RAD) at a wave length of 405 nm at intervals of 15 seconds for 16 minutes.

A further experiment has as its target T2, human thrombin (Homo sapiens, UniProt P00734).
T2 construct: human thrombin (a product of SIGMA Co.); purchased SIGMA Co
In words: Determination of thrombin-inhibiting activity (S-2238 chromogenic substrate, initial rate). The experiment is classed as biochemical. The conditions noted are these: negative logarithm of concentration inhibiting 50% of initial rate, tris hydrochloride buffer pH 8.4, room temperature; for IC50: read-out: Thrombin-inhibiting activity (pIC50) (converted). As to the method: Determination of Thrombin-Inhibiting Activity
130 μl of 100 mM tris hydrochloride buffer adjusted to pH 8.4 was added to 10 μl of an aqueous solution of a test compound. Then 10 μl of a solution of human thrombin (a product of SIGMA Co.) adjusted to 2 units/ml with tris hydrochloride buffer of pH 8.4 was added to the resultant mixture. After the incubation at room temperature for 10 minutes, 50 μl of a solution of D-phenylalanine-L-pipecolyl-L-arginine-P-nitroanilide dihydrochloride (S-2238; a product of Daiichi Kagaku Yakuhin Co.) adjusted to 0.4 mM with tris hydrochloride buffer of pH 8.4 was added thereto. The absorbance was determined and then the initial reaction rate was determined. A control was prepared in the same manner as that described above except that the solution of the compound to be tested was replaced with 10 μl of tris hydrochloride buffer adjusted to pH 8.4. The absorbance was determined with MICROPLATE READER Model 3550-UV (a product of […]) at a wave length of 405 nm at intervals of 15 seconds for 16 minutes.

Experiment [2] relates to blood plasma (prothrombin time). The experiment in a line: Determination of blood anticoagulating activity by prothrombin time (PT) method. It is filed as biochemical, human. The conditions noted are these: blood plasma from healthy people, citrate; Sysmex PT II rabbit brain thromboplastin, 37° C. As to the method: Determination of Blood Anticoagulating Activity
The blood anticoagulating activity was determined by a prothrombin time (PT) determination method. The PT was determined as follows: The blood was taken from healthy people. 3.8% aqueous trisodium citrate solution was added to the blood in a volume ratio of 1:10. The blood plasma was separated by the centrifugation. 5 μl of DMSO solution containing a test compound was added to 45 μl of the blood plasma. After the incubation at room temperature for 2 minutes, a test tube containing the blood plasma solution was placed in Sysmex CA-3000 fully automatic blood coagulation determination device (a product of Toa Medical Electronics Co., Ltd.), and incubated at 37° C. for 3 minutes. 100 μl of Sysmex PT II (rabbit brain tissue thromboplastin, 13.2 mM calcium chloride; a product of Toa Medical Electronics Co., Ltd.) was fed into the test tube. PT was automatically determined with the device. A sample containing 5 μl of DMSO in place of the solution of the test compound was used as the control. The negative logarithm (pPT2) of the concentration of the test compound which elongated PT of the control to the twice as long was determined, and employed as the index of the blood anticoagulating activity.

T1 sequence (P00742 235-488 limits assumed): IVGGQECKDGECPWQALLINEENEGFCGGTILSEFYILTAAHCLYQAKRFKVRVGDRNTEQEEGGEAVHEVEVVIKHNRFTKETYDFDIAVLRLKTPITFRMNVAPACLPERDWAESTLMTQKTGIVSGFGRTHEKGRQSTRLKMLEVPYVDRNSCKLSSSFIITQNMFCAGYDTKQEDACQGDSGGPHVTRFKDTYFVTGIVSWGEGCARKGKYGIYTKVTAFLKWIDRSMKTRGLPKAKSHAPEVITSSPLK
T1 sequence (P00742 41-179 partner limits assumed): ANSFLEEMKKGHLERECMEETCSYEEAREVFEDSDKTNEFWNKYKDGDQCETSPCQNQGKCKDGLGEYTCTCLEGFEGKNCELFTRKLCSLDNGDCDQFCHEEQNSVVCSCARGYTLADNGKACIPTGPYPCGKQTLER

On to `N=C(N)c1ccc(CCP(=O)(O)O)c(OC[C@H](CCC(=O)O)NC(=O)C2CCN(c3ccncc3)CC2)c1.O=C(O)C(F)(F)F.O=C(O)C(F)(F)F` [Compd. of Ex. 4, (4S)-5-(5-amidino-2-(2-phosphorylethyl)phenoxy)-4-((1-(1-pyridine-4-yl)piperidine-4-carbonyl)-amino)pentanoic acid bistrifluoroacetate], for which the “Activity of inhibiting activated blood coagulation factor X (pIC50)” value in experiment [1] was 8.7. Moreover, the “Thrombin-inhibiting activity (pIC50)” value at human thrombin is reported as under 4.0.
Regarding `CC(=N)N1CCC(Oc2ccc(C(=O)NCCOc3cc(C(=N)N)ccc3CCP(=O)(O)O)cc2)CC1` [Compd. of Ex. 2], the IC50 in experiment [1] is 2.51 nM; on human thrombin, over 100000 nM.
On to `N/C(=N/O)c1ccc(CCP(=O)(O)O)c(OCCNC(=O)c2ccc(C(=O)N3CCCC3)cc2)c1` [Compd. of Ex. 6, [2-(4-Hydroxylamidino-2-[2-[4-(1-pyrrolidinecarbamoyl)benzoylamino]ethoxy]phenyl)ethyl]phosphoric acid monotrifluoroacetate], for which the IC50 in experiment [1] was 79.4 nM; at human thrombin it was over 100000 nM.
`N=C(N)c1ccc(CCP(=O)(O)O)c(OCCNC(=O)C2CCN(c3ccncc3)CC2)c1` [Compd. of Ex. 1, [2-(4-Amidino-2-[2-[(1-(1-pyridine-4-yl)piperidine-4-carbonyl)amino]ethoxy]phenyl)ethyl]phosphoric acid bistrifluoroacetate]: the IC50 in experiment [1] was 3.16 nM; at human thrombin, over 316000 nM. The “pPT2 (negative logarithm of the concentration which elongated PT of the control to twice as long)” value in experiment [2] was 6.8. Further, the “Thrombin-inhibiting activity (pIC50)” value on human thrombin was under 3.5.
Consider `N=C(N)c1ccc(CCP(=O)(O)O)c(OCCNC(=O)c2ccc(C(=O)N3CCCC3)cc2)c1` [Compd. of Ex. 3, [2-(4-Amidino-2-[2-[4-(1-pyrrolidinecarbamoyl)benzoylamino]ethoxy]phenyl)ethyl]phosphoric acid mono-trifluoroacetate], for which the IC50 is 2.51 nM in experiment [1] and 39800 nM at human thrombin.
